# Data taken from patent US11547697B2, “Heterocyclic compounds and uses thereof” (MILLENNIUM PHARMACEUTICALS, INC., priority 2009, dated 2023).
# Read-outs that look alike come from different tables or passages of the source.
# Experiments:
# Format in all cases: biochemical
# p110δ/p85α = p110δ/p85α (Homo sapiens (Human), UniProt O00329); experiment: PI 3-Kinase (human) HTRF assay, p110δ/p85α
# p110γ = p110γ (Homo sapiens (Human), UniProt P48736); experiment: PI 3-Kinase (human) HTRF assay, p110γ
# Protocol: (§1) An exemplary system is PI 3-Kinase (human) HTRF™ Assay from Upstate. […] Briefly, the assay is a time resolved FRET assay that indirectly measures PIP3 product formed by the activity of a PI3-K. The kinase reaction is performed in a microtitre plate (e.g., a 384 well microtitre plate). The total reaction volume is approximately 20 ul per well. In the first step, each well receives 2 ul of test compound in 20% dimethylsulphoxide resulting in a 2% DMSO final concentration. Next, approximately 14.5 ul of a kinase/PIP2 mixture (diluted in 1× reaction buffer) is added per well for a final concentration of 0.25-0.3 ug/ml kinase and 10 μM PIP2. The plate is sealed and incubated for 15 minutes at room temperature. To start the reaction, 3.5 ul of ATP (diluted in 1× reaction buffer) is added per well for a final concentration of 10 μM ATP. The plate is sealed and incubated for 1 hour at room temperature. The reaction is stopped by adding 5 ul of Stop Solution per well and then 5 ul of Detection Mix is added per well. The plate is sealed, incubated for 1 hour at room temperature, and then read on an appropriate plate reader. Data is analyzed and IC50s are generated using GraphPad Prism 5. […] For PI3K α, β, δ, and γ, the nM concentration of inhibitor to reach IC50 is provided.
# p110α/p85α = p110α/p85α (Homo sapiens (Human), UniProt P42336); experiment: PI 3-Kinase (human) HTRF assay, p110α/p85α
# p110β/p85α = p110β/p85α (Homo sapiens (Human), UniProt P42338); experiment: PI 3-Kinase (human) HTRF assay, p110β/p85α
# Protocol: as §1
# [1] = in vitro, read-out: PI3K α IC50
# [2] = in vitro, read-out: PI3K γ IC50
# [3] = in vitro, read-out: PI3K β IC50
# Sequence of p110α/p85α (P42336 whole entry): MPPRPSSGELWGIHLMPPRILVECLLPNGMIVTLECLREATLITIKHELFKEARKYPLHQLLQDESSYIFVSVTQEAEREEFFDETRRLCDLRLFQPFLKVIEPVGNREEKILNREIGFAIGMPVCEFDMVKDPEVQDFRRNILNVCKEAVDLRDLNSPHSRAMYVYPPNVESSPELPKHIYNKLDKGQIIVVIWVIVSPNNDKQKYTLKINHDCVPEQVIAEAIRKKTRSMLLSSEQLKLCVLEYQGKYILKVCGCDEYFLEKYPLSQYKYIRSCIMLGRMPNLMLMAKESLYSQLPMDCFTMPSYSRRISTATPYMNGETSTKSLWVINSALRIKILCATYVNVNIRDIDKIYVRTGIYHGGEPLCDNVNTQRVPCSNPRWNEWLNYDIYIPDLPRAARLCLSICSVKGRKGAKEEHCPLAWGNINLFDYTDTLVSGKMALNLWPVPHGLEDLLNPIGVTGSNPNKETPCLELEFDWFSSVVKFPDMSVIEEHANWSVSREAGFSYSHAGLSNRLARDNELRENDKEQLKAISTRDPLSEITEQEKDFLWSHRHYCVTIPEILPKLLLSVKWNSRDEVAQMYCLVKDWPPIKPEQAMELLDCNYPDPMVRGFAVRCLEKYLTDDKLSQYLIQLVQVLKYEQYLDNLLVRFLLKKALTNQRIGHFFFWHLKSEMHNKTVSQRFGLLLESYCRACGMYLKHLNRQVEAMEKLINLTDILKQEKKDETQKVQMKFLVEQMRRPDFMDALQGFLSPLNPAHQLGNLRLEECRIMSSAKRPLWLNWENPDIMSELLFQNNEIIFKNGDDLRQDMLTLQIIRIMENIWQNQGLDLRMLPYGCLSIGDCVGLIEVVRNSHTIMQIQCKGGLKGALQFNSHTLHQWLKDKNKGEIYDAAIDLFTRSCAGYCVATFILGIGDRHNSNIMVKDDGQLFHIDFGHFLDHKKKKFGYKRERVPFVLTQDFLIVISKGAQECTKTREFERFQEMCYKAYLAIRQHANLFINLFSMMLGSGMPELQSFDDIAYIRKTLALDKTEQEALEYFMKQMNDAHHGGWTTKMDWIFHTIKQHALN
# Sequence of p110α/p85α (P27986 whole entry partner): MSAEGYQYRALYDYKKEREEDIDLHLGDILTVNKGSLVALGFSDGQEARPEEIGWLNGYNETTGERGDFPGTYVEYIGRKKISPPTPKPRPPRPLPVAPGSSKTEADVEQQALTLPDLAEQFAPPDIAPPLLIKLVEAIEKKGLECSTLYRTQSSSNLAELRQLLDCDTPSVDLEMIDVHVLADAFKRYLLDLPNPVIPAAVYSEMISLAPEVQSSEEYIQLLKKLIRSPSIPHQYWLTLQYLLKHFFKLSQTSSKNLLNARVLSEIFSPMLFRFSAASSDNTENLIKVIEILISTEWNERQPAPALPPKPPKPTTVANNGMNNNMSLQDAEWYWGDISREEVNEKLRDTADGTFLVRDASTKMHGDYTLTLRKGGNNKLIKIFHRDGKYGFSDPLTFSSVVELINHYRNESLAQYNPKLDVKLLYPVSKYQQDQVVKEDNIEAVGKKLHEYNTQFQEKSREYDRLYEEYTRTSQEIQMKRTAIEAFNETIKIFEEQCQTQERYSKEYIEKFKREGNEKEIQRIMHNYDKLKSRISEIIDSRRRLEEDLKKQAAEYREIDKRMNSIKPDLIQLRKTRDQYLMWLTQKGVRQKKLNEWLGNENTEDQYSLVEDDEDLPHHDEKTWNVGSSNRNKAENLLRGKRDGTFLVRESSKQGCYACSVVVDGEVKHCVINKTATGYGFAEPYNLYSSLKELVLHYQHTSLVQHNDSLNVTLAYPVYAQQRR
# Sequence of p110β/p85α (P42338 whole entry): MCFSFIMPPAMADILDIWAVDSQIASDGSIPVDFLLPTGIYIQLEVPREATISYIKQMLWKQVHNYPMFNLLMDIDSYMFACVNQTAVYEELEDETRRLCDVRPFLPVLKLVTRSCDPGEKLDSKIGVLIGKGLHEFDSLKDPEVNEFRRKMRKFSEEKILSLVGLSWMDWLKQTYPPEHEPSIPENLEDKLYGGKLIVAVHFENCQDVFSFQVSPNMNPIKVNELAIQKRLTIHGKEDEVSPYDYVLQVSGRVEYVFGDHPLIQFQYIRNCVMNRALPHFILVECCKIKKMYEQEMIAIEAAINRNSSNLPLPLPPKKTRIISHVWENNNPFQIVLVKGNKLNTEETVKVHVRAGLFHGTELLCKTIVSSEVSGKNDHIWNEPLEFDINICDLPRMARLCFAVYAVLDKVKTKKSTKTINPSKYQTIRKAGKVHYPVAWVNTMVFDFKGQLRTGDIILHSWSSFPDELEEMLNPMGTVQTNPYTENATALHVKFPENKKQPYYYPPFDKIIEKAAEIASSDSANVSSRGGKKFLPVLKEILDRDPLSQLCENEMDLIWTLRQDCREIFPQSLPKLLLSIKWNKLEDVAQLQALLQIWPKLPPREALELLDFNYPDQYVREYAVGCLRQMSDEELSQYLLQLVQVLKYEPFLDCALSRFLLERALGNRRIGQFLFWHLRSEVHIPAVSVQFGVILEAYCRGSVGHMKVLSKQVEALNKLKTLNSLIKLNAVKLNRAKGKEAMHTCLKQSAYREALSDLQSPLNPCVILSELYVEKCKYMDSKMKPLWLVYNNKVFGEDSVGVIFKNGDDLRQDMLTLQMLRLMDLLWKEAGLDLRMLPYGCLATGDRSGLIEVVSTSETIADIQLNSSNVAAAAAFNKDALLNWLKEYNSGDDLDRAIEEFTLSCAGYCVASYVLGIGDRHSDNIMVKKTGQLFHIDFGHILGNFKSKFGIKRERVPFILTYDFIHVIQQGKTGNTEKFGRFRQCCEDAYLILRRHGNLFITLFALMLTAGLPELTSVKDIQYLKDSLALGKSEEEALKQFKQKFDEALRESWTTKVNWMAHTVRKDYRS
# Sequence of p110β/p85α (P27986 whole entry partner): as the sequence (P27986 whole entry partner) above
# Sequence of p110γ (P48736 whole entry): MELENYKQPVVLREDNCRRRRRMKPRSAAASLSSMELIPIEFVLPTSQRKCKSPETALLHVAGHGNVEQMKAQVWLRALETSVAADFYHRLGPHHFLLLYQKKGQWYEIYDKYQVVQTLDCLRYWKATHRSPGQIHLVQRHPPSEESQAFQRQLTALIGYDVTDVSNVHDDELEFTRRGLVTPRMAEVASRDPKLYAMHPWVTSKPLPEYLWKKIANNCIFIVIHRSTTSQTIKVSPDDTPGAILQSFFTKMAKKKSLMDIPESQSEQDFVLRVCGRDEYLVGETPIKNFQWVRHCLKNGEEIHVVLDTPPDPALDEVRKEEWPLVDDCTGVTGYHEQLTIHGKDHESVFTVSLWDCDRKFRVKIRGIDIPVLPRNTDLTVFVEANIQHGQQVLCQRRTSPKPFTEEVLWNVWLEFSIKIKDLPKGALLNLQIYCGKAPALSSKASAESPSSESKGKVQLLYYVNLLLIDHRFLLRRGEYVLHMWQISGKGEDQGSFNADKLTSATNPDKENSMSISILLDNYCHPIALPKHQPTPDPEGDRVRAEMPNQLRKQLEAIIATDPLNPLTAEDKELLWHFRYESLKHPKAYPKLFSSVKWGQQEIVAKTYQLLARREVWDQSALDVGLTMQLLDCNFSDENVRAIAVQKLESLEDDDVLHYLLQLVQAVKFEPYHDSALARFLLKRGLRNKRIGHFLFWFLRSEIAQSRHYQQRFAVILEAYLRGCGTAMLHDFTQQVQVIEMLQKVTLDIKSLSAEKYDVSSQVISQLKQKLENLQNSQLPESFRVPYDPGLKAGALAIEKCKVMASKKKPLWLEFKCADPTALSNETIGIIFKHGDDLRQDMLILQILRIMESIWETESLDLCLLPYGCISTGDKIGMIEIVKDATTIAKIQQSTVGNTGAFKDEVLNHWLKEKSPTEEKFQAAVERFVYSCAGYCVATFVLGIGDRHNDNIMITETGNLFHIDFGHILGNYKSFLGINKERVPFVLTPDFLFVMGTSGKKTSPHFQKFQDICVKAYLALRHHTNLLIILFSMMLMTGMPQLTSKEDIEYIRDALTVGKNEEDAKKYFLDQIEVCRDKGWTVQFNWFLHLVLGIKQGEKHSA
# Sequence of p110δ/p85α (O00329 whole entry): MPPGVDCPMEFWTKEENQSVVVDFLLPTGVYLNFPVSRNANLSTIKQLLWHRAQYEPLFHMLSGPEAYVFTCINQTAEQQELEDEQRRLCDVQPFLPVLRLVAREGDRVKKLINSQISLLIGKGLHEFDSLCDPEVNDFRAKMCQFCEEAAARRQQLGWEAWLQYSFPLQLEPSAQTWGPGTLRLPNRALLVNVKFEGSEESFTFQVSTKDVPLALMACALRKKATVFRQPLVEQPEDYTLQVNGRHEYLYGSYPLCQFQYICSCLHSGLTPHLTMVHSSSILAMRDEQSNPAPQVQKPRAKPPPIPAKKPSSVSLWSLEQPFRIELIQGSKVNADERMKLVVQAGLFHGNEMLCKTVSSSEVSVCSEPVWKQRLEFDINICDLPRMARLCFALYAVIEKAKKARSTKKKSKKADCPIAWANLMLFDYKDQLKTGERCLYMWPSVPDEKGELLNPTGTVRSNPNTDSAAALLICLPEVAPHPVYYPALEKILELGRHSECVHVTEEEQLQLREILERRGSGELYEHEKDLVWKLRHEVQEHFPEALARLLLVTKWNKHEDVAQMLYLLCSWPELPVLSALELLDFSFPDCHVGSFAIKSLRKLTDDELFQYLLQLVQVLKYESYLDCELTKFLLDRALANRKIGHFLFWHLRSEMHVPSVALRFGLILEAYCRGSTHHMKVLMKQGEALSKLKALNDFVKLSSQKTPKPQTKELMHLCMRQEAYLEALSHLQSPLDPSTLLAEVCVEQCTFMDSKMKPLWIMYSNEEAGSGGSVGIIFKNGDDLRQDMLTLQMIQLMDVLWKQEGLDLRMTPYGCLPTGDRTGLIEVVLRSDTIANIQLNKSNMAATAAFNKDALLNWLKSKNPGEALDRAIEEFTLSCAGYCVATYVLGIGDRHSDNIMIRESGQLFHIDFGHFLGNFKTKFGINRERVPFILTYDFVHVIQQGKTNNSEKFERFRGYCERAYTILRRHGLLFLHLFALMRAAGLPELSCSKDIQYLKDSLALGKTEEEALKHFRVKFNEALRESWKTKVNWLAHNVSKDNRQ
# Sequence of p110δ/p85α (P27986 whole entry partner): as the sequence (P27986 whole entry partner) above
SMILES,IC50 (p110γ; read-out: PI3K γ IC50) [nM],IC50 (p110α/p85α; read-out: PI3K α IC50) [nM],IC50 (p110γ; read-out: PI3K γ In Vitro IC50) [nM],IC50 (p110α/p85α; read-out: PI3K α In Vitro IC50) [nM],other results
Nc1nc2cc(-c3ccc4ncc(C#CC5CC5)n4c3)ccc2o1 [compound 39],< 100,< 100,–,–,IC50 (p110δ/p85α; read-out: PI3K δ IC50): < 100 nM
Nc1nc2cc(-c3ccc4ncc(-c5cccnc5)n4c3)ccc2o1 [compound 37],< 100,< 100,–,–,IC50 (p110δ/p85α; read-out: PI3K δ IC50): < 100 nM
O=C(c1cnc2ccc(-c3cncc(NS(=O)(=O)c4ccccc4)c3)cn12)N1CCOCC1 [compound 424],–,–,< 1000,< 1000,IC50 (p110δ/p85α; read-out: PI3K δ In Vitro IC50): < 10000 nM
Nc1nc2cc(-c3ccc4ncc(-c5cn[nH]c5)n4c3)ccc2o1 [compound 38],< 100,< 100,–,–,IC50 (p110δ/p85α; read-out: PI3K δ IC50): < 100 nM
Nc1nc2cc(-c3ccc4ncc(C(=O)Nc5cccnc5)n4c3)ccc2o1 [compound 190],< 100,< 100,–,–,IC50 (p110δ/p85α; read-out: PI3K δ IC50): < 1000 nM
CCN(CC)CCCn1cnc2ccc(-c3ccc4oc(N)nc4c3)cc2c1=O [compound 281],–,–,–,–,"IC50 (p110δ/p85α; in vitro, read-out: PI3K δ IC50): < 10000 nM; IC50 (p110α/p85α; [1]): < 1000 nM"
Nc1nc2cc(-c3ccc4ncc(C(=O)N5CC[C@@H](F)C5)n4c3)ccc2o1 [compound 475],–,–,< 100,< 100,IC50 (p110δ/p85α; read-out: PI3K δ In Vitro IC50): < 10000 nM
C[C@H]1CCCN1C(=O)c1cnc2ccc(-c3ccc4oc(N)nc4c3)cn12 [compound 482],–,–,< 1000,< 100,IC50 (p110δ/p85α; read-out: PI3K δ In Vitro IC50): < 10000 nM
Nc1nc2cc(-c3ccc4nccc(NCCN5CCOCC5)c4c3)ccc2o1 [compound 33],< 1000,< 100,–,–,IC50 (p110δ/p85α; read-out: PI3K δ IC50): < 1000 nM
Nc1nc2cc(-c3ccc4ncc(C(=O)N5CCOCC5)n4n3)ccc2o1 [compound 105],< 1000,< 1000,–,–,IC50 (p110β/p85α; read-out: PI3K β IC50): < 10000 nM
Nc1nc2cc(-c3ccc4ncc(C(=O)N5CC[C@@H](n6cccn6)C5)n4c3)ccc2o1 [compound 477],–,–,< 1000,< 100,IC50 (p110δ/p85α; read-out: PI3K δ In Vitro IC50): < 10000 nM
CN(CCN1CCOCC1)c1cnc2ccc(-c3ccc4oc(N)nc4c3)cc2n1 [compound 166],< 10000,< 1000,–,–,IC50 (p110β/p85α; read-out: PI3K β IC50): < 10000 nM
CN1CCN(c2cnc3ccc(-c4ccc5nc(N)oc5c4)cc3n2)CC1 [compound 118],< 10000,< 1000,–,–,IC50 (p110β/p85α; read-out: PI3K β IC50): < 100 nM
CN1CCN(c2cnc3ccc(-c4ccc5sc(N)nc5c4)cc3n2)CC1 [compound 127],< 10000,< 1000,–,–,IC50 (p110β/p85α; read-out: PI3K β IC50): < 100 nM
Nc1nc2cc(-c3ccc4ncc(C(=O)N5CCC(N6CCC(F)(F)C6)C5)n4c3)ccc2o1 (centres unmarked) [compound 500],–,–,< 10000,< 1000,IC50 (p110δ/p85α; read-out: PI3K δ In Vitro IC50): < 10000 nM
Nc1nc2cc(-c3ccc4ncc(-c5ccccn5)nc4c3)ccc2o1 [compound 195],< 100,< 1000,–,–,IC50 (p110β/p85α; read-out: PI3K β IC50): < 10000 nM
CC(=O)Nc1nc2ccc(-c3ccc4nc(N)oc4c3)cc2s1 [compound 242],–,–,–,–,IC50 (p110γ; [2]): < 100 nM; IC50 (p110α/p85α; [1]): < 100 nM; IC50 (p110β/p85α; [3]): < 100 nM
Nc1nc2cc(-c3ccc4ncc(C(=O)N5CCOCC5)n4c3)cnc2o1 [compound 400],–,–,< 10000,< 100,IC50 (p110β/p85α; read-out: PI3K β In Vitro IC50): < 10000 nM
CN1CCN(c2cc(-c3ccnc4ccc(-c5ccc6oc(N)nc6c5)cc34)ccn2)CC1 [compound 30],< 100,< 100,–,–,IC50 (p110δ/p85α; read-out: PI3K δ IC50): < 100 nM
CN1CCN(C(=O)c2cnn3ccc(-c4ccc5oc(N)nc5c4)cc23)CC1 [compound 380],–,–,–,–,IC50 (p110γ; [2]): < 10000 nM; IC50 (p110α/p85α; [1]): < 1000 nM; IC50 (p110β/p85α; [3]): < 10000 nM
COc1ncc(-c2ccc3ncc(C(=O)N4CCOCC4)n3c2)c2cn[nH]c12 [compound 517],–,–,< 10000,< 1000,IC50 (p110δ/p85α; read-out: PI3K δ In Vitro IC50): < 10000 nM
Nc1nc2c(-c3ccc4ncc(C(=O)N5CCOCC5)n4c3)cccc2o1 [compound 496],–,–,< 10000,< 1000,IC50 (p110β/p85α; read-out: PI3K β In Vitro IC50): < 10000 nM
COCCN1CCN(c2cnc3ccc(-c4ccc5oc(N)nc5c4)cc3n2)CC1 [compound 387],–,–,–,–,IC50 (p110γ; [2]): < 1000 nM; IC50 (p110α/p85α; [1]): < 100 nM; IC50 (p110β/p85α; [3]): < 1000 nM
Nc1nc2cc(-c3ccc4nccc(CCN5CCOCC5)c4c3)ccc2o1 [compound 27],< 100,< 1000,–,–,IC50 (p110δ/p85α; read-out: PI3K δ IC50): < 10000 nM

SMILES,IC50 (p110γ; read-out: PI3K γ IC50) [nM],IC50 (p110α/p85α; read-out: PI3K α IC50) [nM],IC50 (p110γ; read-out: PI3K γ In Vitro IC50) [nM],IC50 (p110α/p85α; read-out: PI3K α In Vitro IC50) [nM],other results
Nc1nc2ccc(-c3ccc4ncc(C(=O)N5CCOCC5)n4c3)cc2s1 [compound 125],< 1000,< 1000,–,–,IC50 (p110δ/p85α; read-out: PI3K δ IC50): < 10000 nM
COc1ncc(-c2ccc3ncc(C(=O)N4CCOCC4)n3c2)cc1NS(=O)(=O)c1ccccc1 [compound 420],–,–,< 1000,< 100,IC50 (p110δ/p85α; read-out: PI3K δ In Vitro IC50): < 1000 nM
Nc1nc2cc(-c3ccc4ncc(C(=O)N5CC(F)C5)n4c3)ccc2o1 [compound 468],–,–,< 100,< 100,IC50 (p110β/p85α; read-out: PI3K β In Vitro IC50): < 10000 nM
Nc1nc2cc(-c3ccc4ncc(C(=O)N(CCO)CCO)n4c3)ccc2o1 [compound 316],–,–,–,–,IC50 (p110γ; [2]): < 10000 nM; IC50 (p110α/p85α; [1]): < 1000 nM; IC50 (p110β/p85α; [3]): < 10000 nM
CN1CCCN(c2cnc3ccc(-c4ccc5oc(N)nc5c4)cc3n2)CC1 [compound 136],< 10000,< 1000,–,–,IC50 (p110β/p85α; read-out: PI3K β IC50): < 1000 nM
Nc1nc2cc(-c3ccc4nccc(-c5cccnc5)c4c3)ccc2o1 [compound 31],< 100,< 100,–,–,IC50 (p110δ/p85α; read-out: PI3K δ IC50): < 100 nM
COCCn1cnc2ccc(-c3ccc4oc(N)nc4c3)cc2c1=O [compound 272],–,–,–,–,IC50 (p110γ; [2]): < 10000 nM; IC50 (p110α/p85α; [1]): < 1000 nM; IC50 (p110β/p85α; [3]): < 10000 nM
Nc1nc2cc(-c3ccc4nccc(N5CCOCC5)c4c3)ccc2o1 [compound 28],< 100,< 100,–,–,IC50 (p110δ/p85α; read-out: PI3K δ IC50): < 1000 nM
Cc1cc(-c2ccc3nc(N)oc3c2)cn2c(C(=O)N3CCOCC3)cnc12 [compound 449],–,–,< 100,< 1000,IC50 (p110β/p85α; read-out: PI3K β In Vitro IC50): < 1000 nM
C[C@@H]1COCCN1C(=O)c1cnc2ccc(-c3ccc4oc(N)nc4c3)cn12 [compound 495],–,–,< 1000,< 100,IC50 (p110β/p85α; read-out: PI3K β In Vitro IC50): < 10000 nM
Nc1ncc2cc(-c3ccc4nccc(-c5ccncc5)c4c3)ccc2n1 [compound 9],< 1000,< 1000,–,–,IC50 (p110β/p85α; read-out: PI3K β IC50): < 10000 nM
Nc1nc2cc(-c3ccc4ncn(CCN5CCOCC5)c(=O)c4c3)ccc2o1 [compound 289],–,–,–,–,IC50 (p110γ; [2]): < 1000 nM; IC50 (p110α/p85α; [1]): < 1000 nM; IC50 (p110β/p85α; [3]): < 10000 nM
Nc1nc2cc(-c3ccc4ncn(C5CCNCC5)c(=O)c4c3)ccc2o1 [compound 75],< 10000,< 100,–,–,IC50 (p110β/p85α; read-out: PI3K β IC50): < 10000 nM
CC(=O)Nc1n[nH]c2cc(-c3ccc4oc(N)nc4c3)ccc12 [compound 430],–,–,< 10000,< 10000,IC50 (p110β/p85α; read-out: PI3K β In Vitro IC50): < 10000 nM
CN1CCN(C(=O)c2cnc3ccc(-c4ccc5nc(N)oc5c4)cn23)CC1 [compound 145],< 10000,< 1000,–,–,IC50 (p110β/p85α; read-out: PI3K β IC50): < 10000 nM
Nc1nc2cc(-c3ccc4ncc(C(=O)N5CCOCC5)n4c3)ccc2s1 [compound 126],< 1000,< 1000,–,–,IC50 (p110β/p85α; read-out: PI3K β IC50): < 10000 nM
CC(=O)Nc1nc2cc(-c3cc(F)c4oc(N)nc4c3)ccc2s1 [compound 435],–,–,< 100,< 10000,IC50 (p110β/p85α; read-out: PI3K β In Vitro IC50): < 10000 nM
CN(C)C1CN(c2cnc3ccc(-c4ccc5oc(N)nc5c4)cc3n2)C1 [compound 366],–,–,–,–,IC50 (p110γ; [2]): < 10000 nM; IC50 (p110α/p85α; [1]): < 100 nM; IC50 (p110β/p85α; [3]): < 10000 nM
Cc1cc(-c2ccc3ncc(C(=O)N4CCOCC4)n3c2)cc2nc(N)oc12 [compound 364],–,–,–,–,IC50 (p110γ; [2]): < 1000 nM; IC50 (p110α/p85α; [1]): < 1000 nM; IC50 (p110β/p85α; [3]): < 10000 nM
Nc1nc2cc(-c3ccc4ncc(N5CCOCC5)n4n3)ccc2o1 [compound 57],< 10000,< 1000,–,–,IC50 (p110β/p85α; read-out: PI3K β IC50): < 1000 nM
C[C@H]1CN(c2cnc3ccc(-c4ccc5nc(N)oc5c4)cc3n2)CCN1 [compound 309],–,–,–,–,IC50 (p110γ; [2]): < 10000 nM; IC50 (p110α/p85α; [1]): < 1000 nM; IC50 (p110β/p85α; [3]): < 1000 nM
Nc1nc2cc(-c3ccc4ncc(C(=O)N5CCn6cncc6C5)n4c3)ccc2o1 [compound 493],–,–,< 10000,< 100,IC50 (p110β/p85α; read-out: PI3K β In Vitro IC50): < 1000 nM
Nc1nc2cc(-c3cc(F)c4oc(N)nc4c3)ccc2o1 [compound 432],–,–,< 100,< 10000,IC50 (p110β/p85α; read-out: PI3K β In Vitro IC50): < 1000 nM
